Test results taken from the supplement of paper PMC4862054.

What was measured:
Details in all cases: incubation time: 72 h
[1] = system: MDA-MB-436; experiment: normalised response (% of control), CellTox Green; higher = less cell death (100 = DMSO, 0 = benzethonium chloride kill control)
Summary of the method: (§1)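 After 72 h with compound in 384-well plates, breast cancer cell lines seeded as 20 µl suspension were read for CellTox Green fluorescence at 485/520 nm. CellTiter-Glo luminescence was then read after 10 min at room temperature. Compound was present at 5 concentrations in 10-fold steps over a 10,000-fold range set per compound, and plates were normalised to 0.1 % DMSO (100) and a positive kill control (0). Values are normalised signals, each at a single concentration.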

[2] = system: BT-474; experiment: as above
Summary of the method: as §1

[3] = system: HCC1599; experiment: as above
Summary of the method: as §1

[4] = system: MFM-223; experiment: as above
Summary of the method: as §1

[5] = system: MDA-MB-231; experiment: as above
Summary of the method: as §1

[6] = system: CAL-120; experiment: as above
Summary of the method: as §1

[7] = system: MDA-MB-453; experiment: as above
Summary of the method: as §1

[8] = system: MDA-MB-468; experiment: as above
Summary of the method: as §1

[9] = system: DU-4475; experiment: as above
Summary of the method: as §1

[10] = system: CAL-85-1; experiment: as above
Summary of the method: as §1

[11] = system: CAL-51; experiment: as above
Summary of the method: as §1

[12] = system: BT-549; experiment: as above
Summary of the method: as §1

[13] = system: MCF-10A; experiment: as above
Summary of the method: as §1

[14] = system: Hs578T; experiment: as above
Summary of the method: as §1

[15] = system: HDQ-P1; experiment: as above
Summary of the method: as §1

[16] = system: HCC1937; experiment: as above
Summary of the method: as §1

[17] = system: CAL-148; experiment: as above
Summary of the method: as §1

[18] = system: HCC1143; experiment: as above
Summary of the method: as §1

[19] = system: MDA-MB-436; experiment: normalised response (% of control), CellTiter-Glo; higher = more viable cells (100 = DMSO, 0 = benzethonium chloride kill control)
Method: (§2)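 DSRT, 72 h incubation, CellTox Green / CellTiter-Glo readout. Signal is normalised to DMSO and benzethonium chloride controls. Value is the normalised response at the highest dose.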

[20] = system: BT-474; experiment: as above
Method: as §2

[21] = system: HCC1599; experiment: as above
Method: as §2

[22] = system: SK-BR-3; experiment: as above
Method: as §2

[23] = system: MFM-223; experiment: as above
Method: as §2

[24] = system: MDA-MB-231; experiment: as above
Method: as §2

[25] = system: CAL-120; experiment: as above
Method: as §2

[26] = system: MDA-MB-453; experiment: as above
Method: as §2

[27] = system: MDA-MB-468; experiment: as above
Method: as §2

[28] = system: DU-4475; experiment: as above
Method: as §2

[29] = system: CAL-85-1; experiment: as above
Method: as §2

[30] = system: CAL-51; experiment: as above
Method: as §2

[31] = system: BT-549; experiment: as above
Method: as §2

[32] = system: MCF-10A; experiment: as above
Method: as §2

[33] = system: Hs578T; experiment: as above
Method: as §2

[34] = system: HDQ-P1; experiment: as above
Method: as §2

[35] = system: HCC1937; experiment: as above
Method: as §2

[36] = system: CAL-148; experiment: as above
Method: as §2

[37] = system: HCC1143; experiment: as above
Method: as §2

| SMILES | normalised response [1] [%] | normalised response [2] [%] | normalised response [3] [%] | normalised response [4] [%] | normalised response [5] [%] | normalised response [6] [%] | normalised response [7] [%] | normalised response [8] [%] | normalised response [9] [%] | normalised response [10] [%] | normalised response [11] [%] | normalised response [12] [%] | normalised response [13] [%] | normalised response [14] [%] | normalised response [15] [%] | normalised response [16] [%] | normalised response [17] [%] | normalised response [18] [%] | normalised response [19] [%] | normalised response [20] [%] | normalised response [21] [%] | normalised response [22] [%] | normalised response [23] [%] | normalised response [24] [%] | normalised response [25] [%] | normalised response [26] [%] | normalised response [27] [%] | normalised response [28] [%] | normalised response [29] [%] | normalised response [30] [%] | normalised response [31] [%] | normalised response [32] [%] | normalised response [33] [%] | normalised response [34] [%] | normalised response [35] [%] | normalised response [36] [%] | normalised response [37] [%] |
| --- | --- | --- | --- | --- | --- | --- | --- | --- | --- | --- | --- | --- | --- | --- | --- | --- | --- | --- | --- | --- | --- | --- | --- | --- | --- | --- | --- | --- | --- | --- | --- | --- | --- | --- | --- | --- | --- |
| Cc1c(Cn2c(C)nc3c(C(=O)O)cc(N4CCOCC4)cc32)cccc1C(F)(F)F (10000 nM) | 96.6 | 100 | 108 | 82.5 | 110 | 106 | 94.8 | 174 | 102 | 78.3 | 90.7 | 101 | 108 | 120 | 112 | 114 | 77.8 | 115 | 86.2 | 94.5 | 97.5 | 98.3 | 102 | 96.1 | 100 | 94.1 | 69.4 | 97 | 97.3 | 64.9 | 85.4 | 111 | 97.6 | 100 | 92.1 | 114 | 106 |
| CCCCC/C=C/C=C1/C(=O)C=C[C@@H]1C/C=C\CCCC(=O)O [15D-PGJ2] (800 nM) | 107 | 106 | 108 | 106 | 104 | 109 | 72.9 | 119 | 94.9 | 94.3 | 104 | 105 | 95.6 | 124 | 82.9 | 110 | 102 | 110 | 97.4 | 95.4 | 97 | 106 | 102 | 97.8 | 101 | 106 | 88.7 | 100 | 101 | 71.8 | 96.5 | 108 | 102 | 97.1 | 102 | 108 | 107 |
| CC(=O)OC[C@H]1O[C@@H]([S-])[C@H](OC(C)=O)[C@@H](OC(C)=O)[C@@H]1OC(C)=O.CCP(CC)CC.[Au+] [Auranofin] (2500 nM) | 84.1 | 48.5 | 96.3 | 56.2 | 13.3 | 68.4 | 28.8 | -35.6 | 91 | -5.72 | 71 | -11.2 | 76.2 | 79.6 | -37 | 1.35 | 60.1 | 73.2 | 22.4 | 47.9 | 39.1 | 34.3 | 21.9 | 8.02 | 49.8 | 1.5 | 0.33 | 32.6 | 4.51 | 9.42 | 0.2 | 37.9 | 19.1 | 11.1 | 1.72 | 41.8 | 31.8 |
| CS(=O)(=O)N1CCN(Cc2cc3nc(-c4cccc5[nH]ncc45)nc(N4CCOCC4)c3s2)CC1 [Pictilisib] (10000 nM) | 116 | 47.1 | 103 | 56.4 | 118 | 105 | 92 | 155 | – | 50.2 | 48.2 | 102 | 79.4 | 98.8 | 85.4 | 91.4 | 47.1 | 120 | 43 | 50.6 | 64.9 | 22.2 | 28.2 | 48.8 | 34.3 | 13.4 | 26.4 | 81.4 | 27.8 | 8.84 | 25.6 | 18.4 | 31.3 | 19.9 | 32.3 | 15.6 | 26 |
